Calls of active or inactive are those of the source. No cut-off for these calls is given here.

18 molecules from ChEMBL document CHEMBL2203240, “Synthesis of propiophenone derivatives as new class of antidiabetic agents reducing body weight in db/db mice” (Bioorg Med Chem, 2012) can be followed below.

Experiment [1] is described as follows: Inhibition of glycogen phosphorylase at 100 uM.
Experiment [2] concerns the target T1, Tyrosine-protein phosphatase non-receptor type 1 (Homo sapiens) (UniProt P18031).
T1 sequence (whole entry): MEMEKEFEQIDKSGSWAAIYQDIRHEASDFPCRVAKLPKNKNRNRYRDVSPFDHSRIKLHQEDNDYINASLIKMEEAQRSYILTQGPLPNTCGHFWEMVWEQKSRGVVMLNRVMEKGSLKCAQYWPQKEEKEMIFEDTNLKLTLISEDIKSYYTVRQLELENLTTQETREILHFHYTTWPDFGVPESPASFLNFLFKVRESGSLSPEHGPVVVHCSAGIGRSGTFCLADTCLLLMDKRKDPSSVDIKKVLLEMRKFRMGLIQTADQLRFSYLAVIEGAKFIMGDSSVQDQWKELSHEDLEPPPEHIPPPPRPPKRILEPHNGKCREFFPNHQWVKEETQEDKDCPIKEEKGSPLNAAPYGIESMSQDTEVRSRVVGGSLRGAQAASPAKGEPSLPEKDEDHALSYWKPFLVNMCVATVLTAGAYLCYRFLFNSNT
Nature of the experiment: Inhibition of PTP1B at 100 uM.

Experiment [3] addresses Dipeptidyl peptidase 4 (Homo sapiens) (UniProt P27487). Briefly: Inhibition of DPP4 at 100 uM.
In experiment [4] the test system is Rattus norvegicus. Nature of the experiment: Antihyperglycemic activity against sucrose loaded Charles Foster/Wistar albino rat assessed as reduction in blood glucose level at 100 mg/kg, po administered 30 mins before sucrose challenge by glucometer. Format: functional. Also noted: scale not given: the % may be the effect or the level left.
The target in experiment [5] is T2, Glucose-6-phosphatase catalytic subunit 1 (Homo sapiens) (UniProt P35575).
T2 sequence (whole entry): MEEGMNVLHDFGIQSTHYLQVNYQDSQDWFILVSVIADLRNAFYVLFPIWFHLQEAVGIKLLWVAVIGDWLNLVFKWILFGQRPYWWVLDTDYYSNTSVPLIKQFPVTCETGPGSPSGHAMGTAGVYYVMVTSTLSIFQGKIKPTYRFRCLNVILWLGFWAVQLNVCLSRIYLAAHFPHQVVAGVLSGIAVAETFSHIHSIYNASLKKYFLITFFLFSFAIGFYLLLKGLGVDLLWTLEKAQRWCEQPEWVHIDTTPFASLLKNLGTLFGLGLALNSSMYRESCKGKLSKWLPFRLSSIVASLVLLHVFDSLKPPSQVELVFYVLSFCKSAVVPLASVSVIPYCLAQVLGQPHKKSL
Nature of the experiment: Inhibition of glucose-6-phosphatase at 100 uM.

Experiment [6] in a line: Inhibition of alpha-glucosidase at 100 uM.
The test system of experiment [7] is Rattus norvegicus. Briefly: Antihyperglycemic activity against sucrose challenged streptozotocin-induced diabetic Sprague-Dawley albino rat assessed as reduction of AUC of plasma glucose level at 100 mg/kg, po after 1 to 5 hrs administered 30 mins before sucrose challenge by glucometer. Format: functional. Also noted: scale not given: the % may be the effect or the level left.

For experiment [8], the system named is Rattus norvegicus. Nature of the experiment: Antihyperglycemic activity against sucrose challenged streptozotocin-induced diabetic Sprague-Dawley albino rat assessed as reduction of AUC of plasma glucose level at 100 mg/kg, po after 1 to 24 hrs administered 30 mins before sucrose challenge by glucometer. It counts as functional. Also noted: scale not given: the % may be the effect or the level left.

Experiment [9] has as its target T3, Tyrosine-protein phosphatase non-receptor type 1 (Homo sapiens, UniProt P18031).
T3 sequence (P18031 whole entry): T1 sequence (whole entry)
Briefly: Inhibition of PTP1B.

The test system of experiment [10] is Mus musculus. Nature of the experiment: Antihyperglycemic activity in C57BL/Ks db/db mouse assessed as reduction in blood glucose level at 30 mg/kg/day, po measured on day 6 post dose by postprandial oral glucose tolerance test relative to control. Format: functional. Also noted: scale not given: the % may be the effect or the level left.
Experiment [11] deals with Mus musculus. Nature of the experiment: Antihyperglycemic activity in C57BL/Ks db/db mouse assessed as reduction in postprandial hyperglycemia at 30 mg/kg, po measured for 10 days post dose relative to control. On the set-up: scale not given: the % may be the effect or the level left. It counts as functional.
Experiment [12] relates to Mus musculus. Nature of the experiment: Antihyperglycemic activity in C57BL/Ks db/db mouse assessed as reduction in blood glucose level at 30 mg/kg/day, po measured day 10 post dose by postprandial oral glucose tolerance test relative to control. Also noted: scale not given: the % may be the effect or the level left. It counts as functional.
Experiment [13] concerns Mus musculus. Briefly: Antidyslipidemic activity in C57BL/Ks db/db mouse assessed as increase in HDL-cholesterol at 30 mg/kg/day, po relative to control. It counts as functional.
For experiment [14], the system named is Mus musculus. Briefly: Antihyperglycemic activity in C57BL/Ks db/db mouse assessed as reduction in insulin level at 30 mg/kg/day, po relative to control. It counts as functional. On the set-up: scale not given: the % may be the effect or the level left.
The test system of experiment [15] is Mus musculus. Briefly: Antiobesity activity in C57BL/Ks db/db mouse assessed as reduction in body weight change at 30 mg/kg/day, po measured for 10 days relative to control. It counts as functional, organism-based.
Experiment [16] has as its system Mus musculus. Nature of the experiment: Antidyslipidemic activity in C57BL/Ks db/db mouse assessed as reduction in plasma total cholesterol at 30 mg/kg/day, po relative to control. It counts as functional. On the set-up: scale not given: the % may be the effect or the level left.
Experiment [17] deals with Mus musculus. Nature of the experiment: Reduction in food intake in C57BL/Ks db/db mouse at 30 mg/kg/day, po measured from day 3 to day 10. Format: functional, organism-based.
The test system of experiment [18] is Mus musculus. Nature of the experiment: Antidyslipidemic activity in C57BL/Ks db/db mouse assessed as reduction in plasma triglyceride level at 30 mg/kg/day, po relative to control. It counts as functional. On the set-up: scale not given: the % may be the effect or the level left.

Sequence of Dipeptidyl peptidase 4 (Homo sapiens) (P27487 whole entry, looked up): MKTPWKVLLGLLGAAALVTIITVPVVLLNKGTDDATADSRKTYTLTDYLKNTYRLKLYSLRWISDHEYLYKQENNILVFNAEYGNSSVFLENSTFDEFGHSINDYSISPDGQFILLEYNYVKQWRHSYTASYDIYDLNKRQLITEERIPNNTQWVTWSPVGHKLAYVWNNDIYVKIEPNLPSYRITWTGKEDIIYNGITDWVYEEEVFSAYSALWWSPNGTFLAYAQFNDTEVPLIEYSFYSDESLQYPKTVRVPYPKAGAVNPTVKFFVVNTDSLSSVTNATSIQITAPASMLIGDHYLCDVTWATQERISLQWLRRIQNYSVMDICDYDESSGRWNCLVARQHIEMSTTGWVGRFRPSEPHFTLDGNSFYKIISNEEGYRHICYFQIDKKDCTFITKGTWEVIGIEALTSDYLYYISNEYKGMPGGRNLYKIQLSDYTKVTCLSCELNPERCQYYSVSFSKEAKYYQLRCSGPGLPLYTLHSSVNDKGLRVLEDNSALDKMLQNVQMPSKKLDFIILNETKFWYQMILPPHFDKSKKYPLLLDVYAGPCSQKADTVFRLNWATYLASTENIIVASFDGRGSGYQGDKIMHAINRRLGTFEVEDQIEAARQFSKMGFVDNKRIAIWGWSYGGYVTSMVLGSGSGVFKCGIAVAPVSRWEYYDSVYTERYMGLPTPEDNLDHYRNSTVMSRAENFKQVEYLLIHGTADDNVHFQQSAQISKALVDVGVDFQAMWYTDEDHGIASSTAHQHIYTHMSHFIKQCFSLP

For `CCOC(=O)C(CCCOc1cccc(OCCN2CCCCC2)c1C(=O)CC)C(=O)OCC`, the inhibition in experiment [1] was less than 5%; in experiment [2], 19.6%; in experiment [3], less than 5%; in experiment [5] it was less than 5%; in experiment [6], less than 5%. In the experiment with Rattus norvegicus [4], the Activity was 16.4%.
For the molecule `CCC(=O)c1c(O)cccc1OCCN1CCCCC1`, the inhibition in experiment [1] is less than 5%; in experiment [2], 27.5%; in experiment [3] it was less than 5%; in experiment [5], 21.3%; in experiment [6] it was less than 5%. The Activity in the experiment on Rattus norvegicus [7] is 29.2%; in the experiment on Rattus norvegicus [4], 40.4%; in the experiment with Rattus norvegicus [8], 19.7%.
For `CN(C)C(=N)NC(=N)N` [METFORMIN], the Activity in the experiment with Rattus norvegicus [4] worked out at 18.9%.
With `CCC(=O)c1c(O)cccc1OCCN1CCCC1`, the inhibition in [1] is 13.7%; in experiment [2], 36.4%; in [3], less than 5%; in experiment [5] it was less than 5%; in experiment [6], 28.9%. For the same molecule, the Activity in the experiment with Rattus norvegicus [4] was determined as 21.08%.
With `CCCCNCCCOc1cccc(O)c1C(=O)CC`, the inhibition is 24.8% in experiment [1]; 52.1% in experiment [2]; 17.4% in experiment [3]; 18.3% in experiment [5]; less than 5% in [6]. The Activity in the experiment with Rattus norvegicus [4] was 11%. In addition, the IC50 in experiment [9] was determined as 19.2 µM.
As for `CN(CCOc1ccc(CC2SC(=O)NC2=O)cc1)c1ccccn1` (centres undefined) [ROSIGLITAZONE], the Activity in the experiment with Mus musculus [10] is reported as 33.9%; in the experiment with Mus musculus [11], 51.3%; with Mus musculus [12], 46.5%.
As to `CCC(=O)c1c(O)cccc1OCCCN1CCCCC1`, the inhibition is less than 5% in experiment [1]; 31.8% in [2]; less than 5% in experiment [3]; less than 5% in experiment [5]; less than 5% in [6]. For the same molecule, the values for the Activity with Rattus norvegicus [7], in the experiment with Rattus norvegicus [4] and in the experiment with Rattus norvegicus [8] were 10.2%, 33.2% and 8.6%, respectively.
As for `CCC(=O)c1c(O)cccc1OCCCNc1ccc(C)cc1`, the inhibition in experiment [1] was less than 5%; in experiment [2], 79.8%; in experiment [3] it was less than 5%; in experiment [5] it was 18.9%; in experiment [6] it was 18.9%. Besides, the Activity in the experiment on Rattus norvegicus [7] came to 3.02%; with Rattus norvegicus [4] it was 28.7%; with Rattus norvegicus [8], 2.02%. Also, the IC50 in experiment [9] stood at 12.5 µM.
With `CCC(=O)c1c(O)cccc1OCCN(CC)CC`, the inhibition in experiment [1] is less than 5%; in experiment [2], 28.8%; in experiment [3] it was less than 5%; in [5] it was 11.6%; in experiment [6], 19.3%. Further, the Activity in the experiment with Rattus norvegicus [7] was determined as 23%; in the experiment with Rattus norvegicus [4], 38.4%; with Rattus norvegicus [8] it was 20.4%.
On to `CCC(=O)c1c(O)cccc1OCCCN1CCCC1`, for which the inhibition in experiment [1] was 19.5%; in experiment [2], 42.1%; in experiment [3] it was 25.6%; in experiment [5], 13.6%; in experiment [6], less than 5%. Moreover, the figures for the Activity with Rattus norvegicus [7], in the experiment on Rattus norvegicus [4] and with Rattus norvegicus [8] were 16.9%, 26.8% and 14.8%, respectively.
As to `CCCCN(C)CCCOc1cccc(O)c1C(=O)CC`, the Activity in the experiment with Mus musculus [13] was 4.03%; with Mus musculus [10], 26.7%; in the experiment with Mus musculus [11] it was 39.6%; in the experiment on Rattus norvegicus [7], 27.5%; in the experiment with Rattus norvegicus [4] it was 23.8%; in the experiment with Mus musculus [14] it was 27.7%. Moreover, the Activity in the experiment with Mus musculus [16] is 20.4%; in the experiment with Rattus norvegicus [8], 21.5%; in the experiment on Mus musculus [18], 23.8%; in the experiment with Mus musculus [12] it was 33.6%. For the same molecule, the inhibition in [1] is less than 5%; in experiment [2], 31.9%; in experiment [3] it was less than 5%; in experiment [5], 17.3%; in [6], less than 5%. Besides, the result with Mus musculus [15] and in the experiment with Mus musculus [17] was Active.
Regarding `COc1ccc(Cl)cc1C(=O)NCCc1ccc(S(=O)(=O)NC(=O)NC2CCCCC2)cc1` [GLYBURIDE], the Activity in the experiment on Rattus norvegicus [4] was found to be 32.3%.
Regarding `CCOC(=O)C(CCCOc1cccc(OCCN2CCCC2)c1C(=O)CC)C(=O)OCC`, the inhibition in experiment [1] was less than 5%; in [2], 58.6%; in [3], 18.3%; in [5], 13.9%; in experiment [6] it was less than 5%. The Activity in the experiment on Rattus norvegicus [4] was 22.9%. Further, half-maximal inhibition in experiment [9] (IC50) was put at 18.6 µM.
As to `CCOC(=O)C(CCCOc1cccc(OCCCNc2ccc(C)cc2)c1C(=O)CC)C(=O)OCC`, the inhibition is less than 5% in [1]; 42.6% in experiment [2]; less than 5% in experiment [3]; less than 5% in experiment [5]; 11.8% in [6]. In addition, the Activity in the experiment on Rattus norvegicus [4] was 8.49%.
As to `CCOC(=O)C(CCCOc1cccc(OCCN(CC)CC)c1C(=O)CC)C(=O)OCC`, the inhibition is 22.9% in experiment [1]; 40.4% in experiment [2]; less than 5% in experiment [3]; less than 5% in [5]; less than 5% in [6]. In addition, in the experiment on Rattus norvegicus [4], the Activity came out at 17%.
Regarding `CCC(=O)c1c(O)cccc1OCCCNc1ccc(OC)cc1`, the Activity in the experiment on Mus musculus [13] is given as 7.2%; with Mus musculus [10], 28.4%; in the experiment with Mus musculus [11] it was 23.9%; with Rattus norvegicus [7], 22.1%; in the experiment with Rattus norvegicus [4] it was 54.6%; in the experiment on Mus musculus [14], 23.6%. Moreover, the Activity was 14.8% in the experiment on Mus musculus [16], 22.8% in the experiment with Rattus norvegicus [8], 22% in the experiment on Mus musculus [18] and 29.9% in the experiment with Mus musculus [12]. The inhibition in experiment [1] was 23%; in [2], 83.6%; in [3], 13.7%; in [5] it was less than 5%; in [6], 19.3%. Further, the IC50 in [9] was 8.3 µM. The outcome in the experiment with Mus musculus [15] and with Mus musculus [17] was Active.
With `CCOC(=O)C(CCCOc1cccc(OCCN(C)C)c1C(=O)CC)C(=O)OCC`, the inhibition in experiment [1] is less than 5%; in experiment [2] it was 51.1%; in [3] it was less than 5%; in [5], less than 5%; in experiment [6], less than 5%. In addition, the Activity in the experiment on Rattus norvegicus [4] was 11.5%. In [9], this molecule came in with an IC50 of 20.4 µM.
Turning to `CCC(=O)c1c(O)cccc1OCCN(C)C`, the inhibition is less than 5% in experiment [1]; 19.3% in experiment [2]; 24.2% in experiment [3]; 11.3% in experiment [5]; 18.4% in experiment [6]. Besides, the Activity is reported as 12.1% in the experiment on Rattus norvegicus [7], 19.45% in the experiment on Rattus norvegicus [4] and 7.4% with Rattus norvegicus [8].

As a reminder, the inhibition is how much of the control response was suppressed. As usually defined, the IC50 is the point on the concentration scale where inhibition reaches its midpoint.
